# According to ChEMBL document CHEMBL1201862, “PubChem BioAssay data set” (2004):
# Activity calls are given as the source filed them.
# Experiments:
# [1] = test system: BJ; test: cells; type: functional, cell-based; conditions: Homo sapiens
# [2] = DRD fibroblast viability loss – cell-based, non-viral oncogenic, luminescence, dose response (AID 1934); type: functional; conditions: Homo sapiens
# [3] = test system: BJ; test: BJ-TERT fibroblast viability loss – cell-based, RAS-independent, luminescence, dose response (AID 1933); type: functional; conditions: Homo sapiens
# [4] = viability of HCT116 lacking mutant beta-catenin – cell-based, human colon tumor, dose response (AID 1045); type: functional;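 further: HCT116 colon tumor cells with beta catenin knocked out; cells exposed to compound for 60 hours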
# [5] = target: FAD-linked sulfhydryl oxidase ALR (Homo sapiens, UniProt P55789); test: ALR-catalysed DTT oxidation blockers – biochemical, H2O2 detection, luminescence, cherry-pick, dose response (AID 493248)
# Chain of FAD-linked sulfhydryl oxidase ALR (P55789 whole entry): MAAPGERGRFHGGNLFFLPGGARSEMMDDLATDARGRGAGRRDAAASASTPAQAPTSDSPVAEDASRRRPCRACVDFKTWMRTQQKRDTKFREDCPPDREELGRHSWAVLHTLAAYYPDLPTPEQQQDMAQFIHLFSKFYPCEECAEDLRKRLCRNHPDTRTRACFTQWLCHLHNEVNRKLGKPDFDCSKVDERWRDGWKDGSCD
# [6] = viability of PTEN-deleted HCT116 cells – cell-based, HCT116 PTEN knockout, dose response (AID 1047); type: functional;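 further: HCT116 colon tumor cells with PTEN knocked out; cells exposed to compound for 60 hours before readout; potency for loss of cell viability measured by luminescence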
# [7] = test system: BJ; test: BJ-TERT-LT-ST fibroblast viability loss – cell-based, RAS-independent, luminescence, dose response (AID 1935); type: functional; conditions: Homo sapiens;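 further: BJ fibroblasts immortalized with TERT plus LT and ST oncogenes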
# [8] = target: T1, Insulin-degrading enzyme (Homo sapiens, UniProt P14735); test: Dose Response: Fluorescence polarization-based cell-based high throughput dose response assay for inhibitors of insulin-degrading enzyme (IDE). [Related pubchem assays: 434962 (Primary screen (IDE inhibitors in singlicate)), 449730 (Counterscreen (Cytotoxicity in triplicate)), 435028 (Confirmation (IDE inhibitors in triplicate)), 434984 (Summary …; type: functional
# T1 sequence (P14735 whole entry): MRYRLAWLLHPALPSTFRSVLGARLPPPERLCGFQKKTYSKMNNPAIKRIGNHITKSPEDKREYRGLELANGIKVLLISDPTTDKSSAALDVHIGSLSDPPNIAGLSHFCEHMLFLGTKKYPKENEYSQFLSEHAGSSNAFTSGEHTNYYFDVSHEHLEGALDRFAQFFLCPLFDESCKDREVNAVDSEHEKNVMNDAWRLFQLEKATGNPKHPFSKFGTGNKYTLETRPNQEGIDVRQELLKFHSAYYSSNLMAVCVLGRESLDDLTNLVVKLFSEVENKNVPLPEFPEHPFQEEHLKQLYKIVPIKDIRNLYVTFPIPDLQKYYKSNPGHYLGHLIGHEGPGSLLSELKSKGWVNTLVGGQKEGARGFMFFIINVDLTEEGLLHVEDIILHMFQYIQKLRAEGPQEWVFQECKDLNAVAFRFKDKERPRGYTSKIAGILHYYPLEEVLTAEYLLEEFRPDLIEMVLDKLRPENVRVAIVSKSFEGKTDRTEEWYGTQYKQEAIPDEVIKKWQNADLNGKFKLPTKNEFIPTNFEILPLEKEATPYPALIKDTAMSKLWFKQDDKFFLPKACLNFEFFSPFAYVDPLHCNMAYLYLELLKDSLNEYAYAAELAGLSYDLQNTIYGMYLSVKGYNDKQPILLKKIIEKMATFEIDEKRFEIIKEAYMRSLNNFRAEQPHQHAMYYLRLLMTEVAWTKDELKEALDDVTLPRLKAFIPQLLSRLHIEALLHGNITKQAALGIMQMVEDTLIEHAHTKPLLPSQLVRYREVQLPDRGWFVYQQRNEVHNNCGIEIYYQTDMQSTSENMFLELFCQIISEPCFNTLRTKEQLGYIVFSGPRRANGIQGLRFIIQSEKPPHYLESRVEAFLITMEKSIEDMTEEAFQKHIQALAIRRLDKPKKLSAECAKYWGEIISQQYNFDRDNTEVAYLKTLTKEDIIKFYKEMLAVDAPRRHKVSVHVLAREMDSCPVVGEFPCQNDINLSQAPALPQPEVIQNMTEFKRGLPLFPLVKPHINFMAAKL
# [9] = Counterscreen for IDE inhibitors: Luminescence-based cell-based high throughput dose response assay to identify compounds that are cytotoxic to HEK cells. [Related pubchem assays: 434962 (Primary screen (IDE inhibitors in singlicate)), 449730 (Counterscreen (Cytotoxicity in triplicate)), 435028 (Confirmation (IDE inhibitors in triplicate)) …; type: functional; conditions: HEK293
# [10] = cAMP pathway inhibition in counterscreen cell line – TR-FRET cAMP detection, counter-screen for MC4R biased antagonist project, dose response (AID 602305); type: functional, cell-based;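 further: U2OS cells stimulated with forskolin near its EC80 as the cAMP inducer; potency is for inhibition of forskolin-stimulated cAMP signaling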
# [11] = target: Melanocortin receptor 4 (Homo sapiens, UniProt P32245); test: inhibitors of MC4R cAMP signaling – cell-based, TR-FRET, biased antagonists, dose response (AID 602298); type: functional;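 further: antagonist potency against agonist-stimulated cAMP production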
# Chain of Melanocortin receptor 4 (P32245 whole entry): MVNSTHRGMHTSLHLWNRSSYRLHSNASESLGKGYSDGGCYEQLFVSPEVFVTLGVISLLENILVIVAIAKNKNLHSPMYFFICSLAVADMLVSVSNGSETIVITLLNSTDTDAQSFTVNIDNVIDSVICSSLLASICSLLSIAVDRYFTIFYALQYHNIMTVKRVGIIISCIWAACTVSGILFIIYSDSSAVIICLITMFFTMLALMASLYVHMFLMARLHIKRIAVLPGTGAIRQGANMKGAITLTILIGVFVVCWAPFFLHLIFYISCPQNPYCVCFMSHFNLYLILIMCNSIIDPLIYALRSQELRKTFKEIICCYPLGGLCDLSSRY
# [12] = target: Alkaline phosphatase, placental type (Homo sapiens, UniProt P05187); test: human placental alkaline phosphatase inhibition – biochemical, luminescence, confirmation (AID 1512); type: functional
# Chain of Alkaline phosphatase, placental type (P05187 whole entry): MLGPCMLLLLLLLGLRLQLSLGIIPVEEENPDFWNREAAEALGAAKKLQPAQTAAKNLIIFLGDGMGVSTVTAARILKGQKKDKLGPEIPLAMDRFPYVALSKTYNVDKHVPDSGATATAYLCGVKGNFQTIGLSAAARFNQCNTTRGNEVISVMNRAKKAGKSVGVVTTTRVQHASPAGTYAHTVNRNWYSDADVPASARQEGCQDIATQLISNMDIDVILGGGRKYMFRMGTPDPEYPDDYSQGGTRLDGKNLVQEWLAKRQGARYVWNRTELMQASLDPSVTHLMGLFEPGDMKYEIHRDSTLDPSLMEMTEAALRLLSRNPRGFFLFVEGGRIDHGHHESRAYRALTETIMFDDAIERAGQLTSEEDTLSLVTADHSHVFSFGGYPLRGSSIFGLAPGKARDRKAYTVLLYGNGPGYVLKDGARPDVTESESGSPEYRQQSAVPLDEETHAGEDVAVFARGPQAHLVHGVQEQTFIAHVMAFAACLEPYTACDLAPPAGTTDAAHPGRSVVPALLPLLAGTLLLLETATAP
# [13] = microbe, parasite or virus in culture; type: functional; conditions: Mycobacterium tuberculosis
# [14] = target: Beta-galactosidase (Escherichia coli, UniProt Q8VNN2); test: detection-enzyme interference by beta-gal modulators – biochemical, E. coli enzyme, set 3, artefact control for CCR6 antagonist project, dose response (AID 504712); type: functional
# Chain of Beta-galactosidase (Q8VNN2 whole entry): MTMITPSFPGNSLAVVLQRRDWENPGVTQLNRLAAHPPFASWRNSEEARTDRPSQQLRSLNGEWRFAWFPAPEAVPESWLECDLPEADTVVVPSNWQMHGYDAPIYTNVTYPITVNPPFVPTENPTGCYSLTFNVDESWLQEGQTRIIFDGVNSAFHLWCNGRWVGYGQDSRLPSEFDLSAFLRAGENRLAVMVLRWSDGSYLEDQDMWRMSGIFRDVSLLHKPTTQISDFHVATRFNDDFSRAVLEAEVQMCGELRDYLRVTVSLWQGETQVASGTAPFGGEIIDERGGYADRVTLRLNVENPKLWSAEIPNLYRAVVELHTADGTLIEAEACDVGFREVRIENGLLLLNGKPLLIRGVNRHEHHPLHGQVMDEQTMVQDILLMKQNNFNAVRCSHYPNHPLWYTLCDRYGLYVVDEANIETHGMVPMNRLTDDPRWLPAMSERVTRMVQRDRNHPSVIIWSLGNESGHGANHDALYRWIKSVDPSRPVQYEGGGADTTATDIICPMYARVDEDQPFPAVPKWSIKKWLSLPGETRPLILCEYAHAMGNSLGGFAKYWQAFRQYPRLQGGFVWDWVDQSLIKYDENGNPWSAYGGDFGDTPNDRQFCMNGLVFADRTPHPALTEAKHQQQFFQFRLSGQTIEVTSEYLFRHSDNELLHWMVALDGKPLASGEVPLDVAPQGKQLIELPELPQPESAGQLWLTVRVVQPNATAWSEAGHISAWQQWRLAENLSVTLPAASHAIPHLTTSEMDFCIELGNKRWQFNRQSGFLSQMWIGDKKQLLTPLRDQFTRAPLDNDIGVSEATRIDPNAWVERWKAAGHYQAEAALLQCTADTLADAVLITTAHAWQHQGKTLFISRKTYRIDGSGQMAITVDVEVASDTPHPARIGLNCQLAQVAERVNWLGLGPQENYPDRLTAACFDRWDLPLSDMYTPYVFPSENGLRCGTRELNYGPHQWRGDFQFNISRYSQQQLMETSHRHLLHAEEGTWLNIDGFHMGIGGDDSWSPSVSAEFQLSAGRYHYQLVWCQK
# [15] = target: T2, C-C chemokine receptor type 6 (Homo sapiens, UniProt P51684); test: antagonism of CCR6 beta-arrestin recruitment – cell-based, luminescent beta-arrestin readout, dose response (AID 504728); type: functional
# T2 sequence (P51684 whole entry): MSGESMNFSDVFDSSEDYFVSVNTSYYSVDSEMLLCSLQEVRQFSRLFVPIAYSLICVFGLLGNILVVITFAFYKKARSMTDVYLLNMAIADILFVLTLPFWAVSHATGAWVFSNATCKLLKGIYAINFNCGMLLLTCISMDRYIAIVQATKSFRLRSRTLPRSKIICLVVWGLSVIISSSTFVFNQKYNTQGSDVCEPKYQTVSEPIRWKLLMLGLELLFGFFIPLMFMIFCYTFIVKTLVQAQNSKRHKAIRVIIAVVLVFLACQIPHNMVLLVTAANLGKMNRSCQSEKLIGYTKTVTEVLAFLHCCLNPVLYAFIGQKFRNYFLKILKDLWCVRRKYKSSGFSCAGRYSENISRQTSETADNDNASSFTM
# [16] = target: Large T antigen (Simian virus 40, UniProt P03070); type: functional, Betapolyomavirus macacae;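 further: Confirmatory-stage PubChem screen for compounds that inhibit SV40 T antigen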
# Chain of Large T antigen (P03070 whole entry): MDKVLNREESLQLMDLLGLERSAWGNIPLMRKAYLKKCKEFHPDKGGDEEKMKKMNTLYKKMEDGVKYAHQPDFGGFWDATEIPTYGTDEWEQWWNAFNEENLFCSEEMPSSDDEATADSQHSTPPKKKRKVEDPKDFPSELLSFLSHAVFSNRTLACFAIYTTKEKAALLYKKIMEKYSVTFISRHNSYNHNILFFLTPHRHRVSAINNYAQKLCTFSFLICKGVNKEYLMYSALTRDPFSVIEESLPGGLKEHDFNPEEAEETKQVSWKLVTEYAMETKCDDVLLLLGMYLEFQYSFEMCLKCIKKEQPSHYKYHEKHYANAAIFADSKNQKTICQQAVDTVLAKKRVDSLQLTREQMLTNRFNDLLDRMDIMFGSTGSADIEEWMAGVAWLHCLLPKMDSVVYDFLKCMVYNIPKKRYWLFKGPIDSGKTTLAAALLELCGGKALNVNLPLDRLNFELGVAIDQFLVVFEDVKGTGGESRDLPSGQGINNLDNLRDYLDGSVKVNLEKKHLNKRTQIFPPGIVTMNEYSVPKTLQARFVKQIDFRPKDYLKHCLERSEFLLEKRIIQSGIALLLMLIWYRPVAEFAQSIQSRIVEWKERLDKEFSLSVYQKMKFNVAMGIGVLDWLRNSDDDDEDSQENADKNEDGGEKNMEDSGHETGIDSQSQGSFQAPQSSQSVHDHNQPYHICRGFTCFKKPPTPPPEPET
# [17] = target: Glucose-6-phosphate 1-dehydrogenase (Homo sapiens, UniProt P11413); test: inhibition of Homo sapiens G6PD, dose series – biochemical, fluorescence, selectivity assay for P. falciparum G6PD inhibitor project, dose response (AID 504792); type: functional
# Chain of Glucose-6-phosphate 1-dehydrogenase (P11413 whole entry): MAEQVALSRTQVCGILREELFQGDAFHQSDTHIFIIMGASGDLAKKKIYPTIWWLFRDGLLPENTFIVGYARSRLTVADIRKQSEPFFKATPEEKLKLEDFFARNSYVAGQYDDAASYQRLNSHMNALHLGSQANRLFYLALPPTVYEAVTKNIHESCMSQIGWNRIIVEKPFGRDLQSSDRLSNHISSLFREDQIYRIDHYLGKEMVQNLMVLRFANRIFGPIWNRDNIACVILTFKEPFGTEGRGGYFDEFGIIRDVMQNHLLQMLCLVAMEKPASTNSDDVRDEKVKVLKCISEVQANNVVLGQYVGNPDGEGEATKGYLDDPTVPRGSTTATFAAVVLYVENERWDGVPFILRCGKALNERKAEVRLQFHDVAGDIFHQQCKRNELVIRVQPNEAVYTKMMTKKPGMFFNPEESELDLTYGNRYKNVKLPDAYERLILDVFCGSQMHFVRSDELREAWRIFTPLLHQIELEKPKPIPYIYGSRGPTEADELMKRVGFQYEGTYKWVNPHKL
# [18] = target: Neurotensin receptor type 1 (Homo sapiens, UniProt P30989); type: functional;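 further: Image-based confirmatory dose-response assay measuring agonist activity at NTR1; NTR1-expressing U2OS osteosarcoma cells imaged for beta-arrestin GFP spot formation; agonist potency where compounds increase beta-arrestin recruitment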
# Chain of Neurotensin receptor type 1 (P30989 whole entry): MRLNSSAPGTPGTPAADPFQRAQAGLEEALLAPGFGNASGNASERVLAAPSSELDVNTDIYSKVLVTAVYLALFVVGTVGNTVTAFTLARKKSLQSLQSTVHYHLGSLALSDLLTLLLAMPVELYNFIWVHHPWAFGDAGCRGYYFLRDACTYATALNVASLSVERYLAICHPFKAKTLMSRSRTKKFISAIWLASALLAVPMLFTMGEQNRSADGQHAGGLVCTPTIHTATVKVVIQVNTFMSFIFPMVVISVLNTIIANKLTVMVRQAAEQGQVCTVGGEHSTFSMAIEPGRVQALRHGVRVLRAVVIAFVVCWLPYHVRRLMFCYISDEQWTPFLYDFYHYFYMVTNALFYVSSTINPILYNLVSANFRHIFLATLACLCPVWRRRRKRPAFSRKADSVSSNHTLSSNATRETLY
# [19] = target: T3, Acyl-homoserine lactone acylase PvdQ (Pseudomonas aeruginosa (strain LESB58), UniProt Q9I194); test: PvdQ acylase enzyme activity blockers – biochemical, fluorescence, plate reader and imaging, cherry-picks, dose response (AID 493231)
# T3 sequence (Q9I194 whole entry): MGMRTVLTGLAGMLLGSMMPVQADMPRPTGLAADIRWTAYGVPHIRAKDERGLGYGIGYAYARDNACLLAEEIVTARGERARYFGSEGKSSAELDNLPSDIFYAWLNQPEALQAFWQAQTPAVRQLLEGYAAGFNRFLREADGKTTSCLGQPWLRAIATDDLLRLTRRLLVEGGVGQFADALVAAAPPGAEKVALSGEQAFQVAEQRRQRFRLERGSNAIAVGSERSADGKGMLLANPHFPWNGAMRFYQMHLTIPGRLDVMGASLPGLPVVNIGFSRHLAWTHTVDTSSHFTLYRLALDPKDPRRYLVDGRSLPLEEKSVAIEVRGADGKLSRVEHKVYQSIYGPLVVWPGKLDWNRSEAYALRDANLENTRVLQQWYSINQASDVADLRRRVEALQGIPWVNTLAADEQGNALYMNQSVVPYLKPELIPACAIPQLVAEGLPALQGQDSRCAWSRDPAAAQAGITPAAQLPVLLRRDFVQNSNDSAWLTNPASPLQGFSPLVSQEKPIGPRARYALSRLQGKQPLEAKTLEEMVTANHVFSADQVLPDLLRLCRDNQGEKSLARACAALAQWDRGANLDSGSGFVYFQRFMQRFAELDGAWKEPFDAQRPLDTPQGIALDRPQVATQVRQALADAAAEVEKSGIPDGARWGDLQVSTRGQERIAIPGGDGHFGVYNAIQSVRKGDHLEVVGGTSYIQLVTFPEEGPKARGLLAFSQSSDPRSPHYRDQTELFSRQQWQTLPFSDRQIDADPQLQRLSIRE
# [20] = target: T4, Protein skinhead-1 (Caenorhabditis elegans, UniProt P34707); type: functional
# T4 sequence (P34707 whole entry): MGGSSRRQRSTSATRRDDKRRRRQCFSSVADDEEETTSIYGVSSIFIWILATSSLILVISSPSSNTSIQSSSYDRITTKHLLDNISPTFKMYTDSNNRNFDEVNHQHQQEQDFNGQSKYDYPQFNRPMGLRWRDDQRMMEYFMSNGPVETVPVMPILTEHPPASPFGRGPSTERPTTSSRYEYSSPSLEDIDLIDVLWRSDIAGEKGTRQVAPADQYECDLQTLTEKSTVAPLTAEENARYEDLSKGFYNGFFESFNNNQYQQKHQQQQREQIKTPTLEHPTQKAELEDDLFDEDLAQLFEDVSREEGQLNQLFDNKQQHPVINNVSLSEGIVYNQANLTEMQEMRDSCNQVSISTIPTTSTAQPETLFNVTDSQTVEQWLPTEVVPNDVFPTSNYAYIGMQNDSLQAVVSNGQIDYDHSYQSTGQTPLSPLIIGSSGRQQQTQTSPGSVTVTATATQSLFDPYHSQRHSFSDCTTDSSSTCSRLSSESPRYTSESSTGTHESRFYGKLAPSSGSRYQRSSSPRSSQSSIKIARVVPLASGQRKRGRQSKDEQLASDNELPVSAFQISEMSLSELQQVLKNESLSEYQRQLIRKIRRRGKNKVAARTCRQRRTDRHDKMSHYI
# [21] = target: DNA dC->dU-editing enzyme APOBEC-3G (Homo sapiens, UniProt Q9HC16); test: Dose Response confirmation of small molecule APOBEC3G DNA Deaminase Inhibitors via a fluorescence-based single-stranded DNA deaminase assay. [Related pubchem assays (depositor defined):AID493012, AID493028]; type: functional
# Chain of DNA dC->dU-editing enzyme APOBEC-3G (Q9HC16 whole entry): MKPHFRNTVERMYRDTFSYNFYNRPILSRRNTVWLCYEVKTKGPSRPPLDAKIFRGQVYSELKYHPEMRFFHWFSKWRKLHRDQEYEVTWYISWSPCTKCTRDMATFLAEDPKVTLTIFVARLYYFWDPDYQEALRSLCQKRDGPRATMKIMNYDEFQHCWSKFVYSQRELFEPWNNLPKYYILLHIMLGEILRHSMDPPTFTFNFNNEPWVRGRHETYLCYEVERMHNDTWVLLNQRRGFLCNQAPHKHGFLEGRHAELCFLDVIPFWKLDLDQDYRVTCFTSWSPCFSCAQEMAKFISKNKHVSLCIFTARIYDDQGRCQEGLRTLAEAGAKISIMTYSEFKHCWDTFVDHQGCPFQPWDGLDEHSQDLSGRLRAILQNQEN
# [22] = target: DNA dC->dU-editing enzyme APOBEC-3A (Homo sapiens, UniProt P31941); test: A3A deaminase inhibition for selectivity – biochemical, dose response (AID 504722); type: functional
# Chain of DNA dC->dU-editing enzyme APOBEC-3A (P31941 whole entry): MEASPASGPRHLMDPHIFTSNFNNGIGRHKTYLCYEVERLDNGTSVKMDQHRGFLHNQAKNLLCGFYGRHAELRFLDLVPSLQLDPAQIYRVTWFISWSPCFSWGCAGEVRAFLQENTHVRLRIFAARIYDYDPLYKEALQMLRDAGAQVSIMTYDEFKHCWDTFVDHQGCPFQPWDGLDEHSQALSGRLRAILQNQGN
# [23] = Luminescence Cell-Based Dose Retest to Confirm Inhibitors of Cancer Stem Cells. [Related pubchem assays (depositor defined):AID2717, AID2721]; type: functional; conditions: Homo sapiens
# [24] = test system: HEK293; test: cells; type: functional, cell-based; conditions: Homo sapiens
# [25] = test system: HEK293; test: NOD2 signaling inhibitors in MDP-stimulated cells, cell-based, uHTS, luminescence (AID 2001); type: functional; conditions: Homo sapiens
# [26] = test system: HEK293; test: inhibition of NOD1-driven NF-kB reporter – cell-based, luminescence, uHTS, primary screen (AID 1578); type: functional; conditions: Homo sapiens
# [27] = test system: HEK293; test: cells; type: functional, cell-based; conditions: Homo sapiens; remark: listed apart in the source
structure (smiles),measurement,setting,value
Cn1nc(-c2ccc(Cl)cc2)c2cc(C(=O)NCCCN3CCCC3)sc21,EC50,[1],23.1 µM (active)
same,EC50,[2],12.4 µM (active)
same,EC50,[3],9.41 µM (active)
same,EC50,[4],4.01 µM (active)
same,AC50,[5],6.39 µM (active)
same,EC50,[6],4.65 µM (active)
same,EC50,[7],> 150 µM (inconclusive)
O=C1NC(=O)N(c2ccccc2)C(=O)/C1=C\C=C\Nc1ccccc1,IC50,[8],> 55.9 µM (not active)
same,IC50,[9],> 55.7 µM (not active)
c1ccc(Cn2c(CNc3nc4ccccc4n3CCN3CCCCC3)nc3ccccc32)cc1,IC50,[10],> 64.6 µM (inactive)
same,IC50,[11],> 64.6 µM (inactive)
same,IC50,[12],> 100 µM (inactive)
same,CC50,[13],27.1 µM (active)
COc1ccccc1N1C(=O)C=C(Sc2nc(C)cc(C)n2)C1=O,IC50,[14],> 66.6 µM (inactive)
same,IC50,[15],> 66.6 µM (inactive)
same,IC50,[16],24.3 µM (active)
same,IC50,[17],> 80 µM (inactive)
COc1cccc(OC)c1C(=O)Oc1ccc2c(c1)O/C(=C\c1ccncc1)C2=O,EC50,[18],15.9 µM (active)
c1ccc2c(CCNc3[nH]cnc4ncnc3-4)c[nH]c2c1,EC50,[1],53.2 µM (active)
same,EC50,[2],30.5 µM (active)
same,EC50,[3],24.4 µM (active)
same,EC50,[7],> 75 µM (not active)
C#CCSc1ncc(-c2ccccc2)cn1,AC50,[19],6.14 µM (active)
same,IC50,[20],15.3 µM (active)
COc1cccc(C=NNc2nn3cnnc3c3ccccc23)c1O,IC50,[12],> 100 µM (inactive)
Sc1cnc2ccccc2n1,IC50,[21],7.85 µM (active)
same,IC50,[22],> 100 µM (inactive)
CCCOc1ccc(C(=O)c2ccccc2C(=O)OC2CCOC2=O)cc1OCCC (configuration not stated),IC50,[10],> 64.6 µM (inactive)
same,IC50,[11],> 64.6 µM (inactive)
same,EC50,[18],19.8 µM (active)
Clc1ccc(Nc2ncnc3ccc(Br)cc23)cc1,AC50,[19],37.8 µM (active)
same,AC50,[23],4.4 µM (active)
same,IC50,[24],0.95 µM (active)
same,IC50,[25],1.47 µM (active)
same,EC50,[26],3.06 µM (active)
same,IC50,[20],> 100 µM (inactive)
same,IC50,[27],> 20 µM (inactive)
